According to PubChem BioAssay AID248 (DTP/NCI, 2004):
Several values for one entry are separate records, joined by “and”; a condition that tells them apart may be missing. Equal entries are not always repeated. Inconclusive results and toxic doses are left out. No stated cut-off is given here; in the data, active means T/C of 150% or more; inactive means T/C below 125%.

Tested on: L1210 leukemia ip in BDF1 mice, survival T/C
Assay: NCI In Vivo Anticancer Drug Screen. Data for tumor model L1210 Leukemia (intraperitoneal) in B6D2F1 (BDF1) mice
Conditions: endpoint: mean survival time, higher = longer survival
How it was run: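 Survival endpoint. Drug-treated group vs vehicle group, expressed as T divided by C. Tumor passaged by transplantation.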

[1] = dose: 25.0 mg/kg/injection, schedule: Q01DX001 (ip), vehicle: Klucel (hydroxypropylcellulose) (HPC)
[2] = dose: 50.0 mg/kg/injection, schedule: Q01DX001 (ip), vehicle: Klucel (hydroxypropylcellulose) (HPC)
[3] = dose: 100.0 mg/kg/injection, schedule: Q01DX001 (ip), vehicle: Klucel (hydroxypropylcellulose) (HPC)
[4] = dose: 50.0 mg/kg/injection, schedule: Q01DX009 (ip), vehicle: saline with Tween-80
[5] = dose: 100.0 mg/kg/injection, schedule: Q01DX009 (ip), vehicle: saline with Tween-80
[6] = dose: 200.0 mg/kg/injection, schedule: Q01DX009 (ip), vehicle: saline with Tween-80
[7] = dose: 100.0 mg/kg/injection, schedule: Q04DX002 (ip), vehicle: gum acacia
[8] = dose: 200.0 mg/kg/injection, schedule: Q04DX002 (ip), vehicle: gum acacia
[9] = dose: 100.0 mg/kg/injection, schedule: Q04DX003 (ip), vehicle: saline
[10] = dose: 200.0 mg/kg/injection, schedule: Q04DX003 (ip), vehicle: saline
[11] = dose: 400.0 mg/kg/injection, schedule: Q04DX003 (ip), vehicle: saline
[12] = dose: 12.5 mg/kg/injection, schedule: Q04DX003 (ip), vehicle: saline with Tween-80
[13] = dose: 25.0 mg/kg/injection, schedule: Q04DX003 (ip), vehicle: saline with Tween-80
[14] = dose: 50.0 mg/kg/injection, schedule: Q04DX003 (ip), vehicle: saline with Tween-80
[15] = dose: 25.0 mg/kg/injection, schedule: Q04DX003 (ip), vehicle: saline
[16] = dose: 100.0 mg/kg/injection, schedule: Q04DX003 (ip), vehicle: Klucel (hydroxypropylcellulose) (HPC)
[17] = dose: 200.0 mg/kg/injection, schedule: Q04DX003 (ip), vehicle: Klucel (hydroxypropylcellulose) (HPC)
[18] = dose: 400.0 mg/kg/injection, schedule: Q04DX003 (ip), vehicle: Klucel (hydroxypropylcellulose) (HPC)

Measured: T/C

O=C1C(Cl)=CC(Cl)=C/C1=N/Cl
inactive: [1] 110 % of control | [2] 107 % of control | [3] 95 % of control and 100 % of control

Nc1nc(N)c2nc3c(nc2n1)C(=O)N(c1ccc(C(=O)NC(CCC(=O)O)C(=O)O)cc1)C3 (stereo not given)
inactive: dose: 100.0 mg/kg/injection, schedule: Q01DX009 (ip), vehicle: saline 94 % of control | dose: 200.0 mg/kg/injection, schedule: Q01DX009 (ip), vehicle: saline 98 % of control | dose: 400.0 mg/kg/injection, schedule: Q01DX009 (ip), vehicle: saline 86 % of control

c1ccc([Se]c2ccccn2)nc1
inactive: dose: 12.5 mg/kg/injection, schedule: Q01DX009 (ip), vehicle: Klucel (hydroxypropylcellulose) (HPC) 101 % of control | dose: 12.5 mg/kg/injection, schedule: Q04DX003 (ip), vehicle: Klucel (hydroxypropylcellulose) (HPC) 105 % of control | [1] 102 % of control | dose: 25.0 mg/kg/injection, schedule: Q01DX009 (ip), vehicle: Klucel (hydroxypropylcellulose) (HPC) 98 % of control | dose: 25.0 mg/kg/injection, schedule: Q04DX003 (ip), vehicle: Klucel (hydroxypropylcellulose) (HPC) 103 % of control | [2] 110 % of control | dose: 50.0 mg/kg/injection, schedule: Q04DX003 (ip), vehicle: Klucel (hydroxypropylcellulose) (HPC) 107 % of control and 110 % of control | [3] 105 % of control

O=[N+]([O-])c1ccc(/C=N/Nc2nnc(N/N=C/c3ccc([N+](=O)[O-])cc3)c3ccccc23)cc1
inactive: dose: 50.0 mg/kg/injection, schedule: Q01DX001 (ip), vehicle: carboxymethylcellulose (CMC) 93 % of control | dose: 100.0 mg/kg/injection, schedule: Q01DX001 (ip), vehicle: carboxymethylcellulose (CMC) 101 % of control | dose: 200.0 mg/kg/injection, schedule: Q01DX001 (ip), vehicle: carboxymethylcellulose (CMC) 93 % of control | dose: 400.0 mg/kg/injection, schedule: Q01DX001 (ip), vehicle: carboxymethylcellulose (CMC) 98 % of control

COc1ccc(N2C(=O)OC3(CCN(CCCC(=O)c4cccs4)CC3)C2=O)cc1
inactive: [3] 88 % of control | dose: 200.0 mg/kg/injection, schedule: Q01DX001 (ip), vehicle: Klucel (hydroxypropylcellulose) (HPC) 92 % of control | dose: 400.0 mg/kg/injection, schedule: Q01DX001 (ip), vehicle: Klucel (hydroxypropylcellulose) (HPC) 100 % of control

O=C(COc1ccc(Cl)c(Cl)c1)N(Cc1ccccc1)Cc1ccc[n+](Cc2ccc(S(=O)(=O)F)cc2)c1
inactive: dose: 100.0 mg/kg/injection, schedule: Q04DX003 (ip), vehicle: saline with Tween-80 102 % of control | dose: 200.0 mg/kg/injection, schedule: Q04DX003 (ip), vehicle: saline with Tween-80 96 % of control

Nc1cccc2c1C(=O)c1cc(Cl)c(Cl)cc1C2=O
inactive: [4] 104 % of control | [5] 97 % of control | [6] 89 % of control

CC(C)S.[Pb]
inactive: [7] 100 % of control | [8] 100 % of control | dose: 400.0 mg/kg/injection, schedule: Q04DX002 (ip), vehicle: gum acacia 89 % of control

Cc1ccc(SSc2ccc(C)cc2)cc1
inactive: dose: 75.0 mg/kg/injection, schedule: Q01DX009 (ip), vehicle: saline 108 % of control | [9] 101 % of control | [10] 103 % of control | [11] 88 % of control

O=C(NC1CCCCC1)c1ccc(Cl)cc1Cl
inactive: [4] 100 % of control | [5] 100 % of control | [6] 96 % of control

CCCCCCCCCCCCN=C(N)C(N)=NCCCCCCCCCCCC
inactive: dose: 100.0 mg/kg/injection, schedule: Q04DX002 (ip), vehicle: other 108 % of control | dose: 200.0 mg/kg/injection, schedule: Q04DX002 (ip), vehicle: other 96 % of control | dose: 400.0 mg/kg/injection, schedule: Q04DX002 (ip), vehicle: other 87 % of control

N#C/C(=C\c1ccc(-c2ccccc2)cc1)c1ccc([N+](=O)[O-])cc1
inactive: dose: 12.5 mg/kg/injection, schedule: Q01DX009 (ip), vehicle: saline with Tween-80 90 % of control | [12] 95 % of control | dose: 25.0 mg/kg/injection, schedule: Q01DX009 (ip), vehicle: saline with Tween-80 88 % of control | [13] 93 % of control | [14] 88 % of control

COC(=O)C#CBr
inactive: dose: 3.13 mg/kg/injection, schedule: Q01DX009 (ip), vehicle: other 108 % of control | dose: 6.25 mg/kg/injection, schedule: Q01DX009 (ip), vehicle: other 97 % of control

CC(C)NC(=O)c1ccc(CNN(C)C)cc1
inactive: [15] 114 % of control | dose: 50.0 mg/kg/injection, schedule: Q04DX003 (ip), vehicle: saline 104 % of control | [9] 112 % of control | [10] 104 % of control | [11] 111 % of control

COc1ccc(NC(=O)Nc2cc([N+](=O)[O-])ccc2F)cc1
inactive: [16] 89 % of control | [17] 89 % of control | [18] 88 % of control

O=C(O)c1cc2ccccc2cc1O
inactive: [7] 102 % of control | [8] 94 % of control

CC[PH+]1c2ccccc2Oc2ccccc21.CC[PH+]1c2ccccc2Oc2ccccc21.[Br][Pd][Br]
inactive: [12] 98 % of control | [13] 98 % of control | [14] 98 % of control

C1CCC2[N-]CC3CCCCC3[N-]CC3CCCCC3[N-]CC3CCCCC3[N-]CC2C1.[Cu] (stereo not given)
inactive: dose: 20.0 mg/kg/injection, schedule: Q01DX001 (ip), vehicle: Klucel (hydroxypropylcellulose) (HPC) 110 % of control | dose: 40.0 mg/kg/injection, schedule: Q01DX001 (ip), vehicle: Klucel (hydroxypropylcellulose) (HPC) 117 % of control | [3] 116 % of control

O=[N+]([O-])c1ccc(N=Cc2ccccc2)cc1
inactive: [16] 91 % of control | [17] 96 % of control | [18] 98 % of control

COc1cccc2c1CCC1C2CC=C2CC3(CCC21C)OCCO3 (stereo not given)
inactive: dose: 100.0 mg/kg/injection, schedule: Q01DX009 (sc), vehicle: steriod suspending solution 102 % of control | dose: 200.0 mg/kg/injection, schedule: Q01DX009 (sc), vehicle: steriod suspending solution 102 % of control | dose: 400.0 mg/kg/injection, schedule: Q01DX009 (sc), vehicle: steriod suspending solution 101 % of control

C[N+]1(C)N=C([O-])C=C1c1ccccc1
inactive: [9] 111 % of control | [10] 104 % of control | [11] 102 % of control

O=C(CCCC(=O)N/N=C/c1ccc(Cl)cc1)N/N=C\c1ccc(Cl)cc1
inactive: dose: 50.0 mg/kg/injection, schedule: Q01DX001 (ip), vehicle: other 102 % of control | dose: 200.0 mg/kg/injection, schedule: Q01DX001 (ip), vehicle: other 91 % of control | dose: 400.0 mg/kg/injection, schedule: Q01DX001 (ip), vehicle: other 91 % of control

CCC1(CC)COC(=O)NC1=O
inactive: dose: 1.56 mg/kg/injection, schedule: Q01DX009 (ip), vehicle: saline 105 % of control | dose: 3.12 mg/kg/injection, schedule: Q01DX009 (ip), vehicle: saline 116 % of control | dose: 6.25 mg/kg/injection, schedule: Q01DX009 (ip), vehicle: saline 103 % of control | dose: 6.25 mg/kg/injection, schedule: Q04DX003 (ip), vehicle: saline 101 % of control | dose: 12.5 mg/kg/injection, schedule: Q01DX009 (ip), vehicle: saline 103 % of control | dose: 12.5 mg/kg/injection, schedule: Q04DX003 (ip), vehicle: saline 101 % of control | dose: 25.0 mg/kg/injection, schedule: Q01DX009 (ip), vehicle: saline 97 % of control | [15] 87 % of control

CCOC(=O)CNC(=O)Nc1ccc(C(=O)OCC)cc1
inactive: [5] 98 % of control | [6] 92 % of control

CC(O)COCCOCCO (stereo not given)
inactive: [9] 96 % of control | [10] 99 % of control | [11] 94 % of control

CCCCCCOc1ccc(N=[N+]([O-])c2ccc(OCCCCCC)cc2)cc1
inactive: dose: 75.0 mg/kg/injection, schedule: Q01DX001 (ip), vehicle: other 91 % of control | dose: 150.0 mg/kg/injection, schedule: Q01DX001 (ip), vehicle: other 91 % of control | dose: 300.0 mg/kg/injection, schedule: Q01DX001 (ip), vehicle: other 87 % of control
